From US12421208B2, “Chemical compounds” (ASTRAZENECA AB, priority 2020, dated 2025)

Experiments:
PARP1 = biological target: T1, PARP1 (Homo sapiens, UniProt P09874); experiment: PARP fluorescence anisotropy binding assay, PARP1; details: recombinant full length 6HIS tagged PARP1
T1 construct: Recombinant full length 6HIS tagged PARP1 protein; 6HIS
Method: Recombinant full length 6HIS tagged PARP1 protein was diluted to 6 nM with 50 mM Tris pH 8, 0.001% Triton X100, 10 mM MgCl2, 150 mM NaCl and incubated for four hours with an equivalent volume of 2 nM fluorescent probe diluted with 50 mM Tris pH 8, 0.001% Triton X100, 10 mM MgCl2, 150 mM NaCl. The final DMSO concentration of the probe was kept below 1% (v/v).

PARP3 = biological target: T2, PARP3 (Homo sapiens, UniProt Q9Y6F1); experiment: PARP fluorescence anisotropy binding assay, PARP3; details: recombinant full length PARP3
T2 construct: Recombinant full length PARP3 protein
T2 sequence (Q9Y6F1 1-533): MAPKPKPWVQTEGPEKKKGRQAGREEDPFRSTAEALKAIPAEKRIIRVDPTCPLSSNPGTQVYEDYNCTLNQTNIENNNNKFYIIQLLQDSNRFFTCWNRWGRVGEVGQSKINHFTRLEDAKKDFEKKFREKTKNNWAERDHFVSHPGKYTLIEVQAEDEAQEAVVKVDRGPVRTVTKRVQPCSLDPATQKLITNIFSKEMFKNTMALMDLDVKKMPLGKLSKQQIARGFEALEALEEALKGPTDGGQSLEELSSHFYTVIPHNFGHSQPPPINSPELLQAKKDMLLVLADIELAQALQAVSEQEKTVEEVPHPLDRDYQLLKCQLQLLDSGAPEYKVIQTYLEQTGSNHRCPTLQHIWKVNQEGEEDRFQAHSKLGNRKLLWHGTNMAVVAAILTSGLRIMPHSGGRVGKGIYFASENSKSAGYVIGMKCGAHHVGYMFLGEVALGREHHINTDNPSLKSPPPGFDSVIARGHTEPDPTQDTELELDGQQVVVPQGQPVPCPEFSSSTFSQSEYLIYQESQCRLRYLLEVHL
Source text: (§1) PARP Fluorescence Anisotropy Binding Assays

PARP5a = PARP5a (Homo sapiens, UniProt O95271); experiment: PARP fluorescence anisotropy binding assay, PARP5a binding domain; details: recombinant PARP5a binding domain
PARP5a, sequence (O95271 1112-1317): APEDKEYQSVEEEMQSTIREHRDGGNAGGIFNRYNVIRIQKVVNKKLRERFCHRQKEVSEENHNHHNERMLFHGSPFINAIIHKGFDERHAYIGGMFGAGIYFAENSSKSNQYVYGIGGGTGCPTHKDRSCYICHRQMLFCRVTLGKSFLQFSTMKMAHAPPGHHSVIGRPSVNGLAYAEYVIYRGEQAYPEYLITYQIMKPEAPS
Source text: as §1

PARP6 = biological target: T3, PARP6 (Homo sapiens, UniProt Q2NL67); experiment: PARP fluorescence anisotropy binding assay, PARP6; details: recombinant full length GST tagged PARP6
T3 construct: Recombinant full length GST tagged PARP6 protein; GST
T3 sequence (Q2NL67 whole entry): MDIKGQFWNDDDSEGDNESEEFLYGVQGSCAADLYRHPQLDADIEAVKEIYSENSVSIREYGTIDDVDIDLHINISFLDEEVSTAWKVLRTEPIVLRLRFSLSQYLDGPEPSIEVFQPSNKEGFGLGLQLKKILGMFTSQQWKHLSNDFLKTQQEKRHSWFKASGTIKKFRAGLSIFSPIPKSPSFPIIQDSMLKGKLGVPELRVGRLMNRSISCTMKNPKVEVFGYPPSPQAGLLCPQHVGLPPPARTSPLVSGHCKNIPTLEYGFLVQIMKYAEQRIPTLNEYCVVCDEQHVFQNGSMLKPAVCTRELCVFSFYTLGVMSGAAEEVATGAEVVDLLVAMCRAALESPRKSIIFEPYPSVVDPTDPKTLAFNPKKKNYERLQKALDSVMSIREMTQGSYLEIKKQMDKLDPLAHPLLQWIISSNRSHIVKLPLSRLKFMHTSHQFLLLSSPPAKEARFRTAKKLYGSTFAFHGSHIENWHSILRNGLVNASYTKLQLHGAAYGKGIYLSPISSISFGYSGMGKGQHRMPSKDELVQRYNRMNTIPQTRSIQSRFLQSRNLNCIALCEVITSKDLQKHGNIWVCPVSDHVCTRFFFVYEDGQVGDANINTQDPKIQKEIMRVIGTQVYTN
Method: as §1
(§2) Recombinant full length GST tagged PARP6 protein was diluted to 160 nM with 50 mM Tris pH 8, 0.001% Triton X100, 10 mM MgCl2, 150 mM NaCl and incubated for four hours with an equivalent volume of 6 nM fluorescent probe diluted with 50 mM Tris pH 8, 0.001% Triton X100, 10 mM MgCl2, 150 mM NaCl. The final DMSO concentration of the probe was kept below 1% (v/v).
Fluorescence anisotropy of the probe when bound to the proteins was measured using a BMG Pherastar FSX© in the presence of test compounds or solvent control and the effect on anisotropy determined. % inhibition values for different test compound concentrations were calculated and fitted to a four parameter logistic plot in order to determine the IC50 value. Where necessary, the compound Ki can be determined from the IC50 value using a Munson Rodbard equation defined in Anal Biochem. 1980 Sep. 1; 107(1):220-39 and is based on the known KD of the probe binding to the relevant PARP protein

hERG = hERG (Homo sapiens, UniProt Q12809); experiment: hERG inhibition
hERG, sequence (Q12809 whole entry): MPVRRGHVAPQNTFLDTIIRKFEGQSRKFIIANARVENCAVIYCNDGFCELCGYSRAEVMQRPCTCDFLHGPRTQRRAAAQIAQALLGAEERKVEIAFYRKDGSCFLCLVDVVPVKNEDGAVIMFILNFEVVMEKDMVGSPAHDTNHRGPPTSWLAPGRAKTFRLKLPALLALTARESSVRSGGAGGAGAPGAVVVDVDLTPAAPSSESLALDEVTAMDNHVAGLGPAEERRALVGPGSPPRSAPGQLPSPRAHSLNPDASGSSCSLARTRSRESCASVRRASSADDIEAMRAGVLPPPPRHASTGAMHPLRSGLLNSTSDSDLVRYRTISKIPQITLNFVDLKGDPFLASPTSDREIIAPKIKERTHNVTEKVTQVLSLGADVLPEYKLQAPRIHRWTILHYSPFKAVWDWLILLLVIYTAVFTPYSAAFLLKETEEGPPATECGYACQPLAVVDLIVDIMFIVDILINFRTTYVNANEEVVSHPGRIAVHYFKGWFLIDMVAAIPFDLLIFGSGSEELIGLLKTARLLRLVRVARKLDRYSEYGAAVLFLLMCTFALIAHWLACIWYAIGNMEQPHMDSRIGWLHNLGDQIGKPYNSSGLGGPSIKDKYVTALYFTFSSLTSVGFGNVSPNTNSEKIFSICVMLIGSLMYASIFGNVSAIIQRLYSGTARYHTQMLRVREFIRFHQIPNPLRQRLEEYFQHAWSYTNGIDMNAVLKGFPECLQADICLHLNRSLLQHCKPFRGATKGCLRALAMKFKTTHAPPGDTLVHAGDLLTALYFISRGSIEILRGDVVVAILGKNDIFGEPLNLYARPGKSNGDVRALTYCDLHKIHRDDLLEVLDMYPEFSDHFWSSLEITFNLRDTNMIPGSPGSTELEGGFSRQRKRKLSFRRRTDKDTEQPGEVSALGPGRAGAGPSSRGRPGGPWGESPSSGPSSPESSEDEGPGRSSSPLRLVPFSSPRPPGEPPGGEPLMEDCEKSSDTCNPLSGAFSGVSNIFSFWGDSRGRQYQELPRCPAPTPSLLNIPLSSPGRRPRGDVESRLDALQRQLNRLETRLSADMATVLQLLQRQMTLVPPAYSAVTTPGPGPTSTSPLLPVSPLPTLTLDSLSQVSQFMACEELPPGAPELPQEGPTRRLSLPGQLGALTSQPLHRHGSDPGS
Source text: It is well known that blockade of the cardiac ion channel coded by human ether-n-gogo-related gene (hERG) is a risk factor in drug discovery and development. Blockage of hERG can cause safety problems such as cardiac arrhythmia. Advantageously, the compounds of Formula I have low hERG activity.

BRCA2 (−/−) DLD1 cells = experiment: PARP proliferation assay (7 day compound dosing), BRCA2 (−/−) DLD1; type: cell-based; details: BRCA2 −/− DLD-1 cells, 7 day dosing; read-out: BRCA2 −/− DLD-1 prolif. 7 d IC50
Method: (§3) PARP Proliferation Assay (7 Day Compound Dosing)
(§4) DLD1 and BRCA2 (−/−) DLD1 cells were harvested to a density of 5000 cells/ml and 2.5E4 cells/ml respectively in complete media, 40 μL/well seeded into 384-well plates (Greiner, Kremsmunster, Austria; 781090) using a Multidrop Combi then incubated at 37° C., 5% CO2 overnight. Next day (Day 1) using a Multidrop Combi add sytoxgreen (5 ul, 2 uM) and saponin (10 ul, 0.25% stock) to a day 0 plate, seal the plate using a black adhesive lid and incubate for >3 h at rt. Cells were imaged using Cell Insight (Thermo Fisher) fitted with a 4× objective. Test compounds are added using an Echo 555 and placed in incubator maintained at 37° C., 5% CO2 and incubated for 7 days. On Day 8 add sytox green (5 ul, 2 uM) and then saponin (10 ul, 0.25% stock) to plates, seal the plate using a black adhesive lid and incubate for >3 h at rt. Read all cells on the Cell Insight with 4× Objective. The rate of proliferation is determined in Genedata by assessing the total cell number output from the Cell Insight for Day 0 and Day 8 plates.

MDR1 and BCRP = experiment: In vitro human transporter efflux (MDCK-MDR1-BCRP); type: in vitro ADME; details: human, pH 7.4, Papp(B to A)/Papp(A to B), 1 or 0.1 μM, 90-min incubation
Method: In Vitro Human Transporter Efflux
(§5) MDCKII cells expressing MDR1 and BCRP were seeded onto polyethylene membranes in 96-well Transwell insert systems at a density to form a confluent cell monolayer. […] The final percent volume of the organic solvent was less than 1%. Permeation of the test compounds from A to B direction and from B to A direction was determined over a 90-min incubation at 37° C. and 5% CO2 with a relative humidity of 95%. At the end of the incubation, samples from the apical and basolateral side were taken and then precipitated with cold acetonitrile containing internal standard. After centrifugation at 4000 rpm, the supernatant was diluted with 0.1% formic acid aqueous solution and quantified by LC-MS/MS. The integrity of the cell monolayers was confirmed by using the marker Lucifer yellow.
(§6) (1) The efflux ratio was calculated using the following equation Efflux ratio=Papp(B to A)/Papp(A to B)
(§7) (2) where dCr/dt is the cumulative concentration of the compound in the receiver chamber as a function of time (in μM/s); Vr is the solution volume in the receiver chamber (0.1 ml on the apical side and 0.3 ml on the basolateral side); A is the surface area for the transport, that is, 0.11 cm2 for the area of the monolayer; and CO is the initial concentration in the donor chamber (in μM).

PARP2 = biological target: T4, PARP2 (Homo sapiens, UniProt Q9UGN5); experiment: PARP fluorescence anisotropy binding assay, PARP2; details: recombinant full length PARP2
T4 construct: Recombinant full length PARP2 protein
T4 sequence (Q9UGN5 whole entry): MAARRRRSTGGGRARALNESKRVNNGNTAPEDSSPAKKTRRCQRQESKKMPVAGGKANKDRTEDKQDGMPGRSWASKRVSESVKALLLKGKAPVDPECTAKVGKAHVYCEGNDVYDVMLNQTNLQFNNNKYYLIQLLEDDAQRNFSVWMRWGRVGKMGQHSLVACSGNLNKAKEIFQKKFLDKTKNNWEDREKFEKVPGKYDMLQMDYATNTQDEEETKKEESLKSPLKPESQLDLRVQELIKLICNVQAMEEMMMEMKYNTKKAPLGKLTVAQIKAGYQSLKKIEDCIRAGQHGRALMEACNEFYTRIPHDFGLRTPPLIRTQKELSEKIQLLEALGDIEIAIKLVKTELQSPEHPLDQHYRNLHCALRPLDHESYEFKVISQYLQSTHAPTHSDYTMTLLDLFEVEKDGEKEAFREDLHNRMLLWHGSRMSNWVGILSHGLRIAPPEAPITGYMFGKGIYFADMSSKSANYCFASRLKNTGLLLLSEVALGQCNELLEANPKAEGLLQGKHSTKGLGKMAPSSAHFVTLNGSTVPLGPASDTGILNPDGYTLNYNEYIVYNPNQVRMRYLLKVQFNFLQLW
Method: as §1
as §2, with “PARP2” for “GST tagged PARP6”, “6” for “160”, “2” for “6”
Fluorescence anisotropy of the probe when bound to the proteins was measured using a BMG Pherastar FSX© in the presence of test compounds or solvent control and the effect on anisotropy determined. % inhibition values for different test compound concentrations were calculated and fitted to a four parameter logistic plot in order to determine the IC50 value.

DLD1 cells = experiment: PARP proliferation assay (7 day compound dosing), WT DLD1; type: cell-based; details: Homo sapiens, 168 h; WT DLD-1 cells, 7 day dosing; read-out: WT DLD-1 prolif. 7 d IC50
Method: as §3, §4

[1] = system: MDCKII cells expressing MDR1 and BCRP; experiment: In vitro human transporter efflux (MDCK-MDR1-BCRP); type: in vitro ADME; details: Papp(B to A)/Papp(A to B), 1 or 0.1 μM, 90-min incubation
Method: In Vitro Human Transporter Efflux
as §5, §6, §7

T1 sequence (P09874 whole entry): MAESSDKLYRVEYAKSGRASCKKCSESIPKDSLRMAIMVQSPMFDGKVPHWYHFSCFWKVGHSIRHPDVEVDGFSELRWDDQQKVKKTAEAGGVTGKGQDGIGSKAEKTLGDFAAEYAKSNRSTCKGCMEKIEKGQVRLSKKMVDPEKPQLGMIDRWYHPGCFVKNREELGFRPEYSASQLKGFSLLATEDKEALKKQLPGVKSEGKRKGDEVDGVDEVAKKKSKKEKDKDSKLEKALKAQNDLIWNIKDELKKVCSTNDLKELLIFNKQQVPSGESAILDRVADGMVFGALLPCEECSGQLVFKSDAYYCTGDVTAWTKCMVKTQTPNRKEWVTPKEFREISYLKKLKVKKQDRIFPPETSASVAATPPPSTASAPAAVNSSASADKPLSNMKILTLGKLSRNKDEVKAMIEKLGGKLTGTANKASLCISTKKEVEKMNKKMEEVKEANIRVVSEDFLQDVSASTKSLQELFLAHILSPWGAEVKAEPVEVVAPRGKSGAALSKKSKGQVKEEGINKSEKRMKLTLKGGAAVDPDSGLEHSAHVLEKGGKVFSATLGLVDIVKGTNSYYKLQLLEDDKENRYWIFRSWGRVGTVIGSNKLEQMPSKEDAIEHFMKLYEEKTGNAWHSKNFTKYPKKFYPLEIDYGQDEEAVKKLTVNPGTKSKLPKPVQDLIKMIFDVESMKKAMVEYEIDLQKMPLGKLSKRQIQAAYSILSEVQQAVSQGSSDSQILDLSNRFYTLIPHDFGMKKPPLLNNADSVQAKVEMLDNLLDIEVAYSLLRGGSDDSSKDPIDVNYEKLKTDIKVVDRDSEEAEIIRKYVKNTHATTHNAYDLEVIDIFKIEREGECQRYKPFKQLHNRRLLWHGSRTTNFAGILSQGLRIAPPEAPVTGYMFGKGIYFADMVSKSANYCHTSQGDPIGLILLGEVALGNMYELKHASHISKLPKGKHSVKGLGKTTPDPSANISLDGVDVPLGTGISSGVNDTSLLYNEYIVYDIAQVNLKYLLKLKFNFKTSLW

Row | IC50 (PARP1) [nM] | IC50 (PARP3) [µM] | IC50 (PARP5a) [µM] | IC50 (PARP6) [µM] | IC50 (BRCA2 (−/−) DLD1 cells) [nM] | efflux ratio at 90 min (MDR1 and BCRP) | IC50 (PARP2) [µM] | IC50 (DLD1 cells) [µM] | MDCK-MDR1-BCRP Efflux Ratio [1] | SMILES | IC50 (hERG) [µM]
1 | 15 | 85 | > 100 | > 100 | 8 | 4.2 |  |  |  | CNC(=O)c1ccc(N2CCN(Cc3ccc4nc(C(C)F)c(=O)[nH]c4c3F)CC2)c(F)n1 (single isomer, unassigned) [Example 12, 6-fluoro-5-[4-[[5-fluoro-2-[(1S OR 1R)-1-fluoroethyl]-3-oxo-4H-quinoxalin-6-yl]methyl]piperazin-1-yl]-N-methyl-pyridine-2-carboxamide] | > 40
2 | 9 | 62 | > 100 | > 100 | 19 |  | > 100 | 22 | 3.0 | CNC(=O)c1ccc(N2CCN(Cc3ccc4nc(C(C)F)c(=O)[nH]c4c3F)CC2)c(F)n1 (single isomer, unassigned) [Example 13, 6-fluoro-5-[4-[[5-fluoro-2-[(1S OR 1R)-1-fluoroethyl]-3-oxo-4H-quinoxalin-6-yl]methyl]piperazin-1-yl]-N-methyl-pyridine-2-carboxamide] | > 40
